Reference: patent US11584744B2 (UNIVERSITY OF WASHINGTON, priority 2017, dated 2023)
≈ marks a conversion by molar mass, not a printed value. Where two headings read alike, the source gives them in different places.

Legend:
[1] = tested on: S. aureus MRSA (ATCC 33591); experiment: MIC susceptibility testing; type: cell-based, Staphylococcus aureus; conditions: Staphylococcus aureus, MRSA ATCC33591; read-out: (G) MRSA (ATCC33591) MIC
Procedure, shortened: (§1)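 CLSI broth microdilution in triplicate, 5×10^5 CFU/mL final, ≤0.5% DMSO; MHB for S. aureus, CA-MHB for E. coli and E. faecium, CA-MHB plus 3% laked horse blood for S. pyogenes (5% CO2).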

[2] = tested on: E. faecium VRE (ATCC 51559); experiment: MIC susceptibility testing; type: cell-based, Enterococcus faecium; conditions: Enterococcus faecium
Procedure, shortened: as §1

[3] = target: recombinant S. aureus MetRS enzyme (Staphylococcus aureus, UniProt A0A0H2XID2); experiment: Inhibition of SaMetRS, ATP depletion assay; type: biochemical
Procedure, shortened: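 N-terminal 6-His S. aureus MetRS (25 nM) was pre-incubated 15 min at room temperature with compound, 400 μg/mL E. coli tRNA and pyrophosphatase in HEPES-KOH pH 7.9, 2% DMSO. Reaction started with 150 nM ATP plus 20 μM L-methionine, ran 120 min; remaining ATP read by Kinase-Glo luminescence, IC50 by sigmoidal nonlinear regression.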

[4] = Protein binding assays, equilibrium dialysis; type: in vitro ADME, mouse; conditions: 1 μM, equilibrium dialysis 22 hours
Procedure: Protein binding assays: Compound binding to mouse plasma proteins was determined using 96-well equilibrium dialyzer plates (SDIS 9610EN, Nest Group, Inc.). Mouse plasma ([…]-SW-F, BioreclamationIVT, Westbury, N.Y.) containing compound (final concentration 1 μM) was added to a donor chamber as a 150 μL volume. The buffer solution (0.2 mM phosphate buffer, 150 μL) was added to the reciprocal acceptor chamber. Each compound was tested in triplicate. To prepare calibration solution for compound quantifications, blank wells were prepared containing only mouse plasma in a donor well and buffer solution in its acceptor well. The equilibrium dialysis was carried out by rocking the plate for 22 hours in 37° C. Once equilibrium was reached, the plasma and buffer solution from both wells were carefully removed for further analysis with liquid chromatography-tandem mass spectrometry. Plasma solution and internal standard were mixed in the presence of 80% acetonitrile. After centrifuging the solution, the supernatant was transferred to an insert. Similarly, the buffer solution from the acceptor side was prepared containing 40% acetonitrile. Calibration standards for donor and acceptor sides were prepared with compound concentrations of 50 nM, 100 nM, 250 nM, 500 nM, and 1 μM. The compound concentrations from each well were calculated from the calibration curves using Microsoft Excel. The percentage of the test compound bound was determined as follows: % Free=(Concentration buffer chamber/Concentration plasma chamber)×100% % Bound=100%−% Free

[5] = tested on: T. cruzi; experiment: T. cruzi growth inhibition; type: cell-based, Trypanosoma cruzi; conditions: read-out: (E) T. cruzi EC50
[6] = target: T1, MetRS (T. brucei) (Trypanosoma brucei brucei, UniProt Q38C91); experiment: MetRS (T. brucei) enzyme inhibition; type: biochemical
T1 sequence (Q38C91 1-773): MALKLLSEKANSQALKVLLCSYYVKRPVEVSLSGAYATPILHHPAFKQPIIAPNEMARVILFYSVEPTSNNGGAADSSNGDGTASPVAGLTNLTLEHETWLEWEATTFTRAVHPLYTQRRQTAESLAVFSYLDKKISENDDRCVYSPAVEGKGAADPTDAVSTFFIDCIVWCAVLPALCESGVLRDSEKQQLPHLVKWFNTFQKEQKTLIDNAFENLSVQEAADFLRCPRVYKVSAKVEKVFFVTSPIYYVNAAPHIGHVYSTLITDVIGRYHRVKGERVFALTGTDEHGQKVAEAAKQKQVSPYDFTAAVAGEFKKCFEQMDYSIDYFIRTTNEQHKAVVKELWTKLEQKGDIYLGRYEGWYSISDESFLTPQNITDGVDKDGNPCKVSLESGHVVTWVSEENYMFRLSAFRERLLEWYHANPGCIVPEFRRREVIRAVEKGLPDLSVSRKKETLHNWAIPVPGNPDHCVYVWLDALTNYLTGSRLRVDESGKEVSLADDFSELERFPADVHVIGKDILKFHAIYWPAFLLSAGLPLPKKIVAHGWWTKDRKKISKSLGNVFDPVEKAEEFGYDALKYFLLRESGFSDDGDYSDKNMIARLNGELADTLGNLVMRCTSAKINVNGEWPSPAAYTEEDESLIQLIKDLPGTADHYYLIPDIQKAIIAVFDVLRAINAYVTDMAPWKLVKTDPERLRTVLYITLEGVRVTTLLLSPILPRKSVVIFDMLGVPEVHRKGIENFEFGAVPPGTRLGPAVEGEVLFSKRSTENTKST

[7] = tested on: S. aureus; experiment: Serum shift assays (MIC with and without 50% human serum); type: cell-based, Staphylococcus aureus; conditions: Staphylococcus aureus
Procedure: Serum shift assays: To assess the role of protein binding on compound susceptibility, MIC determinations were performed in triplicate in the presence and absence of 50% human serum. Serial threefold dilutions of 2× compound were generated in MHB and aliquoted onto 96 well plates with a DMSO limit of 0.5%. Bacteria were adjusted to 1*10^8 CFUs/mL in MHB, then further diluted 1:100 in MHB and 100% heat deactivated filter sterilized pooled human serum. Fifty microliters were added to each well of the corresponding plates, and the plates were incubated at 37° C. for ˜20 h. The lowest concentration causing ≥90% growth inhibition was recorded as the MIC.

[8] = target: MetRS (C. parvum) (Cryptosporidium parvum, UniProt Q5CVN0); experiment: MetRS (C. parvum) enzyme inhibition; type: biochemical; conditions: read-out: (C) MetRS (C. parvum) IC50
[9] = tested on: S. aureus MSSA (ATCC 29213); experiment: MIC susceptibility testing; type: cell-based, Staphylococcus aureus; conditions: Staphylococcus aureus, 18 h; read-out: S. aureus MSSA (ATCC 29213) MIC
[10] = Cytotoxicity testing on mammalian cells (AlamarBlue, 48 hours); type: cell-based; conditions: human
Procedure: Cytotoxicity testing on mammalian cells: Compounds were assayed for cytotoxicity against CRL-8155 (human lymphoblasts) and HepG2 cells (human hepatocellular carcinoma). Cells were exposed to serial dilutions of compounds for 48 hours and toxicity was quantified using AlamarBlue (ThermoFisher Scientific, Waltham, Mass.). Assays were performed in quadruplicate and EC50 values were calculated with non-linear regression methods using software by the Collaborative Drug Database (Burlingame, Calif. www.collaborativedrug.com)

[11] = tested on: E. faecium (ATCC 19434); experiment: MIC susceptibility testing; type: cell-based; conditions: Enterococcus faecium, ATCC19434; read-out: E. faecium (ATCC 19434) MIC
Source text: (§2) Media and culture conditions. Mueller Hinton broth (MHB), cation adjusted Mueller Hinton broth (CA-MHB), and Brain Heart Infusion broth (BHI) were purchased from Becton Dickinson (Franklin Lakes, N.J.). Tryptic soy agar (TSA) plates, TSA with 5% sheep blood plates, and CA-MHB with 3% laked horse blood were purchased from Remel (San Diego, Calif.). MHB was used to assay all Staphylococcus aureus strains. CA-MHB was used for Staphylococcus epidermidis, Enterococcus faecalis, Enterococcus faecium, Escherichia coli, and Pseudomonas aeruginosa. CA-MHB supplemented with 3% laked horse blood was used for Streptococcus pneumoniae and Streptococcus pyogenes. Staphylococcus, Enterococcus, Escherichia, and Pseudomonas strains were cultured at 37° C. with ambient air. Streptococcus strains were cultured in 37° C. with 5% CO2. Separate conditions for radiolabeled precursor uptake assays are described below.
(§3) Susceptibility testing: Minimum inhibitory concentration (MIC) determinations were performed in triplicate in 96-well round bottom microtiter plates (Corning, Corning N.Y.) as described by the Clinical and Laboratory Standards Institute (CLSI). Serial two-fold dilutions of compounds were added to plates in 50 μL volumes. An additional 50 μL of media containing bacterial cells (1×10^6 CFUs/mL) was then added to each well. Maximum DMSO concentrations were 0.5%. Plates were incubated at 37° C. for at least 18 h before reading the susceptibility result by optical absorbance (OD600) using a BioTek ELx800. The lowest concentration causing ≥90% growth inhibition compared to the untreated control was recorded as the MIC (and also corresponded to the visual MIC). MICs were measured at least twice and the higher value (if different) was recorded herein.

[12] = tested on: E. faecalis (ATCC 29212); experiment: MIC susceptibility testing; type: cell-based; conditions: Enterococcus faecalis, ATCC29212; read-out: E. faecalis (ATCC 29212) MIC
Source text: as §2, §3

[13] = tested on: S. aureus MRSA (ATCC 43300); experiment: MIC susceptibility testing; type: cell-based; conditions: Staphylococcus aureus; read-out: S. aureus MRSA (ATCC 43300) MIC
Source text: as §2, §3

[14] = Liver microsome stability; type: in vitro ADME
Procedure: Microsome stability. Liver microsome stability assays were done by contract research laboratory, Wuxi AppTec Co. (Hubei, China). Briefly, compounds at 1 μM concentration were incubated in singlet with human or CD-1 mouse liver microsomes for 6 time points (0, 5, 10, 20, 30, and 60 min). Loss of parent compound was quantified by liquid chromatography/tandem mass spectrometry.

[15] = read-out: E. faecium VRE (ATCC 51559) MIC
[16] = CRL-8155 cells (human lymphoblasts), read-out: Mamm. cells (CRL8155) CC50
[17] = HepG2 cells (human hepatocellular carcinoma), read-out: Mamm. cells (HepG2) CC50
[18] = recombinant enzyme, lower limit of detection 0.025 μM, read-out: MetRS S. aureus (enzyme) IC50

recombinant S. aureus MetRS enzyme, sequence (A0A0H2XID2 2-657): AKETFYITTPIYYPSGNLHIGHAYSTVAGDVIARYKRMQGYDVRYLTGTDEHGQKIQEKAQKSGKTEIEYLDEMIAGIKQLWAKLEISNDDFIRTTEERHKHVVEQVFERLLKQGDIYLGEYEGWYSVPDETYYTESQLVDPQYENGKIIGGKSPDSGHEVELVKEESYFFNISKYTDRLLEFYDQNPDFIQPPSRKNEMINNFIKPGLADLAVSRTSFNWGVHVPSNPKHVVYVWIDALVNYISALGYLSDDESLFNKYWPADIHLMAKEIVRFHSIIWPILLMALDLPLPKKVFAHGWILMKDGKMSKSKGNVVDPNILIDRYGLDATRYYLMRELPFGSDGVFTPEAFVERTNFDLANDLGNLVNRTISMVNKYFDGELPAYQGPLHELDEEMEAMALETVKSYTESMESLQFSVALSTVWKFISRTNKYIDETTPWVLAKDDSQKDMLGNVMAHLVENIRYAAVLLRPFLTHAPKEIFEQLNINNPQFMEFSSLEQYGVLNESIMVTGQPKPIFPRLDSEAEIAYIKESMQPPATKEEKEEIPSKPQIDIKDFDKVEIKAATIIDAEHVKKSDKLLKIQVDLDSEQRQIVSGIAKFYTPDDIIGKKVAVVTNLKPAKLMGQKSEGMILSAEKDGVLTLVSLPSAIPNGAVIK
MetRS (C. parvum), sequence (Q5CVN0 entry or part of it): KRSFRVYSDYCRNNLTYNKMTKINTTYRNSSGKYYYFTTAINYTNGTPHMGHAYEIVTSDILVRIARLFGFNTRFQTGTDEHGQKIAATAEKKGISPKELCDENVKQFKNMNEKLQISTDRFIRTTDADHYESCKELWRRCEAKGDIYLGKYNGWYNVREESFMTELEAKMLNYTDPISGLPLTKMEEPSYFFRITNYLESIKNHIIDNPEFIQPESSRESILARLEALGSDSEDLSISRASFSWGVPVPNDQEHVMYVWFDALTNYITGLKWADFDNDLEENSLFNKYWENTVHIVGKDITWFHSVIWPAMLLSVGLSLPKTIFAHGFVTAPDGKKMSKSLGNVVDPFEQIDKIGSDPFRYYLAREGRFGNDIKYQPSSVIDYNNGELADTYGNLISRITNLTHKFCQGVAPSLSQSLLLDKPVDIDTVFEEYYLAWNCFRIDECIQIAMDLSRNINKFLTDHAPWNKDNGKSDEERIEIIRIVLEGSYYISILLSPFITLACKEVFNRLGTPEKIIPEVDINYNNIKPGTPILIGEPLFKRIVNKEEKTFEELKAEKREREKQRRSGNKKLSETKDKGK

With CCCn1c(Cc2ccc(Cl)cc2Cl)cn(Cc2nc3nc(F)ccc3[nH]2)c1=O [Compound 2069, 4-[(2,4-dichlorophenyl)methyl]-1-({5-fluoro-1H-imidazo[4,5-b]pyridin-2-yl}methyl)-3-propyl-2,3-dihydro-1H-imidazol-2-one] the MIC [1] was 0.445 µg/mL (≈ 1.02 µM), the MIC ([2]; E. faecium ATCC 51559, read-out: (I) E. faecium (ATCC 51559) MIC) was > 2 µg/mL and the IC50 ([3]; read-out: (B) MetRS (S. aureus) IC50) was < 25 nM. The “% binding to mouse plasma” value [4] was 99.6%, the EC50 ([5]; Trypanosoma cruzi) was 91.3 nM and the EC50 [5] was 176 nM. The IC50 [6] was < 40 nM, the MIC ([7]; 50% human serum, read-out: Avg MIC ± SEM (+50% serum)) was 18.3 ± 2.2 µg/mL and the MIC ([7]; no serum, read-out: Avg MIC ± SEM (no serum)) was 0.036 ± 0.03 µg/mL. The IC50 [8] was < 40 nM.
For Oc1cc(NCCCNCc2cc(Cl)cc(Cl)c2)nc2ccccc12 [Compound 1312, 2-((3-((3,5-dichlorobenzyl)amino)propyl)amino)quinolin-4(1H)-one], the MIC [9] was 2.5 µg/mL (≈ 6.64 µM), the MIC [2, 15] was 0.156 µg/mL (≈ 0.415 µM) and the CC50 at 48 h [10, 16] was > 7.5 µg/mL. The CC50 at 48 h [10, 17] was > 7.5 µg/mL, the MIC [11] was 0.156 µg/mL (≈ 0.415 µM) and the MIC [12] was 0.313 µg/mL (≈ 0.832 µM). For the same molecule, the MIC [13] was 5 µg/mL (≈ 13.3 µM) and the IC50 [3, 18] was < 25 nM.
With O=c1[nH]c(Cc2ccc(Cl)cc2Cl)cn1Cc1nc2ccc(F)nc2[nH]1 [Compound 1962, 4-(2,4-dichlorobenzyl)-1-((5-fluoro-3H-imidazo[4,5-b]pyridin-2-yl)methyl)-1,3-dihydro-2H-imidazol-2-one, reference compound] the half-life at 1 μM ([14]; human, human liver microsomes, read-out: Microsome stability: Human T½) was 25.9 min, the half-life at 1 μM ([14]; mouse liver microsomes, CD-1 mouse, read-out: Microsome stability: Mouse T½) was 27 min and the MIC [9] was 2.5 µg/mL (≈ 6.37 µM). For the same molecule, the MIC [2, 15] was 1.25 µg/mL (≈ 3.19 µM), the CC50 at 48 h [10, 16] was > 19.6 µg/mL and the CC50 at 48 h [10, 17] was > 19.6 µg/mL. For the same molecule, the MIC [11] was 1.25 µg/mL (≈ 3.19 µM), the MIC [12] was 5 µg/mL (≈ 12.7 µM) and the MIC [13] was 5 µg/mL (≈ 12.7 µM). For the same molecule, the IC50 [3, 18] was < 25 nM.
